Target: human Cat S (Homo sapiens, UniProt P25774)
Test: Cathepsin enzyme inhibition assay (fluorogenic peptide substrate cleavage)
Assay type: biochemical
Settings: human Cat S 1 nM; substrate Z-Val-Val-Arg-AMC 20 μM; pH 6.5; fluorescence over 20 minutes
Experimental: Cathepsin Enzyme Inhibition Assay
Enzyme activity is measured by observing the increase in fluorescence intensity caused by cleavage of a peptide substrate containing a fluorophore whose emission is quenched in the intact peptide.
Assay buffer: 100 mM potassium phosphate pH 6.5, EDTA-Na 5 mM, Triton X-100 0.001%, DTT 5 mM. Enzymes (all at 1 nM): human and mouse Cathepsin S, Cat K, Cat B, Cat L. Substrate (20 μM): Z-Val-Val-Arg-AMC, except for Cat K which uses Z-Leu-Arg-AMC (both from Bachem).
AMC=7-Amino-4-Methyl-Coumarin.
DTT=dithiothreitol. Final volume: 100 μL.
Excitation 360 nm, Emission 465 nm.
Enzyme is added to the substance dilutions in 96-well microtitre plates and the reaction is started with substrate. Fluorescence emission is measured over 20 minutes, during which time a linear increase is observed in the absence of inhibitor. IC50 are calculated by standard methods. Inhibition of human Cat S, mouse Cat S, human Cat K, mouse Cat K, human Cat B, mouse Cat B, human Cat L and mouse Cat L have been measured separately. The results obtained for human Cat S are expressed in the following table.

human Cat S, sequence (P25774 115-331): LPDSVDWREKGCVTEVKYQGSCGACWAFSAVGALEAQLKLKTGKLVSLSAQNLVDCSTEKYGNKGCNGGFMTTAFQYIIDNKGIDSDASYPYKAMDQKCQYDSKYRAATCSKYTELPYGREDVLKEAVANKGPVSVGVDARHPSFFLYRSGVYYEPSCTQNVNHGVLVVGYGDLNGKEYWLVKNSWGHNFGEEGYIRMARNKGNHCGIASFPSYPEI

SMILES	IC50 [µM]
CO[C@@H]1C[C@H](S(=O)(=O)c2ccc(-c3ccnnc3)cc2C(F)(F)F)C[C@H]1C(=O)NC1(C#N)CC1 (racemic) [Example 110, (1R,2R,4R) and (1S,2S,4S)-2-Methoxy-4-(4-pyridazin-4-yl-2-trifluoromethyl-benzenesulfonyl)-cyclopentanecarboxylic acid (1-cyano-cyclopropyl)-amide]	0.0006
Cc1cc(-c2ccc(S(=O)(=O)[C@@H]3C[C@@H](C(=O)NC4(C#N)CC4)[C@H](C(=O)N4CC(F)(F)C4)C3)c(C(F)(F)F)c2)ccn1 [Example 121, (1R,2R,4R)-2-(3,3-Difluoro-azetidine-1-carbonyl)-4-[4-(2-methyl-pyridin-4-yl)-2-trifluoromethyl-benzenesulfonyl]-cyclopentanecarboxylic acid (1-cyano-cyclopropyl)-amide]	0.0002
N#CC1(NC(=O)[C@@H]2C[C@@H](S(=O)(=O)c3ccc(F)cc3Cl)C[C@H]2CO)CC1 [Example 155, (1R,2R,4S)-4-(2-Chloro-4-fluoro-benzenesulfonyl)-2-hydroxymethyl-cyclopentanecarboxylic acid (1-cyano-cyclopropyl)-amide]	0.107
N#CC1(NC(=O)[C@@H]2C[C@@H](S(=O)(=O)c3ccccc3Cl)C[C@H]2OCc2ccc(C(F)(F)F)cc2)CC1 (racemic) [Example 247, (1R,2R,4R) and (1S,2S,4S)-4-(2-chlorophenylsulfonyl)-N-(1-cyanocyclopropyl)-2-(4-(trifluoromethyl)benzyloxy)cyclopentanecarboxamide]	0.00598
COC[C@@H]1C[C@@H](S(=O)(=O)c2ccccc2Cl)C[C@H]1C(=O)NCC#N (single isomer, unassigned) [Example 104]	1.2
CC(C)(O[C@@H]1C[C@H](S(=O)(=O)c2ccccc2Cl)C[C@H]1C(=O)NC1(C#N)CC1)c1ccc(Cl)cc1 (racemic) [Example 244, (1R,2R,4R) and (1S,2S,4S)-2-(2-(4-chlorophenyl)propan-2-yloxy)-4-(2-chlorophenylsulfonyl)-N-(1-cyanocyclopropyl)cyclopentanecarboxamide]	0.0147
COc1ccc(S(=O)(=O)[C@H]2C[C@@H](OC)[C@H](C(=O)NC3(C#N)CC3)C2)c(Cl)c1 (racemic) [Example 89, (1R,2R,4R) and (1S,2S,4S)-4-(2-Chloro-4-methoxy-benzenesulfonyl)-2-methoxy-cyclopentanecarboxylic acid (1-cyano-cyclopropyl)-amide]	0.0074
N#CC1(NC(=O)[C@H]2CC[C@H](S(=O)(=O)c3ccc(N4CCN(C5CC5)CC4)cc3Cl)C2)CC1 (racemic) [Example 102, (1S,3S) and (1R,3R)-3-[2-Chloro-4-(4-cyclopropyl-piperazin-1-yl)-benzenesulfonyl]-cyclopentanecarboxylic acid (1-cyano-cyclopropyl)-amide]	0.27
N#CC1(NC(=O)[C@@H]2C[C@@H](S(=O)(=O)c3ccc(F)cc3Cl)C[C@H]2COc2ccc(Cl)nc2)CC1 [Example 162, (1R,2R,4S)-4-(2-Chloro-4-fluoro-benzenesulfonyl)-2-(6-chloro-pyridin-3-yloxymethyl)-cyclopentanecarboxylic acid (1-cyano-cyclopropyl)-amide]	0.0147
N#CC1(NC(=O)[C@H]2CC[C@H](S(=O)(=O)c3ccc(F)cc3Cl)C2)CC1 (racemic) [Example 92, (1S,3S) and (1R,3R)-3-(2-Chloro-4-fluoro-benzenesulfonyl)-cyclopentanecarboxylic acid (1-cyano-cyclopropyl)-amide]	0.385
CCNC(=O)Cn1cc(-c2ccc(S(=O)(=O)[C@H]3C[C@@H](OC)[C@H](C(=O)NC4(C#N)CC4)C3)c(C(F)(F)F)c2)cn1 (racemic) [Example 223, (1R,2R,4R) and (1S,2S,4S)-4-[4-(1-Ethylcarbamoylmethyl-1H-pyrazol-4-yl)-2-trifluoromethyl-benzenesulfonyl]-2-methoxy-cyclopentanecarboxylic acid (1-cyano-cyclopropyl)-amide]	0.00031

Reference: patent US20100317647A1 (priority 2009, published 2010)
